Source: ChEMBL document CHEMBL3639166, “Heteroaryloxyheterocyclyl compounds as PDE10 inhibitors” (2013)

These compounds were tested against T1, cAMP and cAMP-inhibited cGMP 3',5'-cyclic phosphodiesterase 10A (Rattus norvegicus, UniProt Q9QYJ6) (assay: Enzyme Inhibition Assay: Enzyme activity: An IMAP TR-FRET assay was used to analyze the enzyme activity (Molecular Devices Corp., Sunnyvale, Calif).).
T1 sequence (Q9QYJ6 whole entry): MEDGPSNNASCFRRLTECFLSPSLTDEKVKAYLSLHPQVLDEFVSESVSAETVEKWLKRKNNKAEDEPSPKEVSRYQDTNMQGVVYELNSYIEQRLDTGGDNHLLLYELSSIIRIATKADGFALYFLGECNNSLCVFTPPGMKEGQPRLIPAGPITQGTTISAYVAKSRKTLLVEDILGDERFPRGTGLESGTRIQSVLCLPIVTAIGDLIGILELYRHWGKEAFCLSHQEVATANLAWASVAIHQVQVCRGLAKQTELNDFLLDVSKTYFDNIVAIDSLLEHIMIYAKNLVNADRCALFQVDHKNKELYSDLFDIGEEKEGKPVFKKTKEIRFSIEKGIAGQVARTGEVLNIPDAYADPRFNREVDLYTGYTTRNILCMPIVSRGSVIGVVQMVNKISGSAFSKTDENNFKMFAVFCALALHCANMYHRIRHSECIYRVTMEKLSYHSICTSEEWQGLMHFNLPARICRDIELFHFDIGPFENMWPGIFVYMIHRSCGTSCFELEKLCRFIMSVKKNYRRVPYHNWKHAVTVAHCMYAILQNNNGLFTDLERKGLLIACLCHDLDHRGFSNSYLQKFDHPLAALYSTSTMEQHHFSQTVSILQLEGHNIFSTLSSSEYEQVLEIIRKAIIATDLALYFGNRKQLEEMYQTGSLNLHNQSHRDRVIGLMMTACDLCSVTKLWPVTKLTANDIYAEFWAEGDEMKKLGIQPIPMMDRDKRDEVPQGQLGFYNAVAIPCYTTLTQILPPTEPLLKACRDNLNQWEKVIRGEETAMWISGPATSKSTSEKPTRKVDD

Row | Structure (SMILES) | IC50
1 | Fc1ccc(-c2nccnc2OC2CN(c3ccc4ccccc4n3)C2)cn1 | 45.7 nM
2 | OC[C@H]1CCCN1c1nccnc1OC1CN(c2ccc3ccccc3n2)C1 | 150 nM
3 | OCC1CCN(c2nccc(OC3CN(c4ccc5ccccc5n4)C3)n2)CC1 | 14.2 nM
4 | OCC1CCN(c2nc3ccccc3nc2OC2CN(c3ccc4ccccc4n3)C2)CC1 | 9.75 nM
5 | O=C(c1nc2ccccc2[nH]1)N1CC[C@@H](Oc2ncccc2C2CCOCC2)C1 | 1820 nM
6 | c1ccc2nc(N3CCC(Oc4nccnc4-c4ccncc4)CC3)ccc2c1 | 35.7 nM
7 | Cc1ccc2nc(N3CCC(Oc4ncccc4C4CCOCC4)CC3)ccc2c1 | 472 nM
8 | COCC1CCN(c2nccnc2OC2CCN(c3ccc4ccccc4n3)CC2)CC1 | 1120 nM
9 | CC(=O)N1CCCC(c2cccnc2OC2CN(C(=O)c3cc4ccccc4[nH]3)C2)C1 (stereo not drawn) | 886 nM
10 | CC(=O)N1CC=C(c2nccnc2OC2CN(C(=O)c3nc4ccccc4[nH]3)C2)CC1 | 10.4 nM
11 | CC(C)Oc1cc(F)cc(-c2nccnc2OC2CN(c3ccc4ccccc4n3)C2)c1 | 174 nM
12 | Cc1cc(-c2cccnc2OC2CCN(C(=O)c3ccc4ccccc4n3)CC2)ccn1 | 1230 nM
13 | Clc1cnccc1-c1nccnc1OC1CCN(c2ccc3ccccc3n2)CC1 | 83.9 nM
14 | c1cnc(O[C@@H]2CCN(c3cc4ccccc4cn3)C2)c(C2CCOCC2)c1 | 1830 nM
15 | Cc1cc(-c2cccnc2OC2CCN(C(=O)c3nccc4ccccc34)CC2)ccn1 | 2130 nM
16 | CC(=O)N1CCN(c2nccnc2OC2CN(c3ccc4ccccc4n3)C2)CC1 | 77.5 nM
17 | Cc1ccc(-c2cnc(N3CCC(CO)CC3)nc2OC2CN(c3ccc4ccccc4n3)C2)cn1 | 0.2 nM
18 | Brc1cccnc1OC1CN(c2cccnn2)C1 | 25.3 nM
19 | OCC1CCN(c2nccnc2OC2CN(c3ccc4ccccc4n3)C2)CC1 | 2.3 nM
20 | O=C(c1ccc2ccccc2n1)N1CCC(Oc2nccnc2C2CCOCC2)CC1 | 994 nM
21 | Cc1cccc(-c2nc3ccccc3nc2OC2CN(c3ccc4ccccc4n3)C2)c1 | 53.5 nM
22 | CS(=O)(=O)N1CCC(c2nccnc2OC2CN(c3ccc4ccccc4n3)C2)CC1 | 208 nM

Row | Structure (SMILES) | IC50
23 | OCc1ccc(N2CCC(Oc3ncccc3C3CCOCC3)CC2)nc1 | 1170 nM
24 | Cc1ccc(C(=O)N2CCC(Oc3ncccc3C3CCOCC3)CC2)nc1 | 1650 nM
25 | Cc1ccc(-c2nccnc2OC2CN(c3ccc4ccccc4n3)C2)cc1 | 98.7 nM
26 | CC(=O)N1CCC(c2cccnc2OC2CN(C(=O)OC(C)(C)C)C2)CC1 | 10200 nM
27 | Cc1cc(-c2nccnc2OC2CCN(C(=O)c3ccc4ccccc4n3)CC2)ccn1 | 2660 nM
28 | Cc1cc(-c2nccnc2OC2CN(C(=O)c3nc4ccccc4[nH]3)C2)ccn1 | 156 nM
29 | O[C@H]1CCN(c2nccnc2OC2CCN(c3ccc4ccccc4n3)CC2)C1 | 198 nM
30 | CC(=O)N1CC=C(c2nccnc2OC2CN(c3nc4ccccc4s3)C2)CC1 | 63.1 nM
31 | Cc1cc(-c2nccnc2OC2CN(c3ccc4ccccc4n3)C2)ccn1 | 12.7 nM
32 | OCC1CCN(c2nccnc2OC2CN(c3cnc4ccccc4n3)C2)CC1 | 37.8 nM
33 | Cc1cc(N2CCC(Oc3nccnc3C3CCOCC3)CC2)nc2ccccc12 | 125 nM
34 | c1ccc(-c2ccc(-c3nccnc3OC3CN(c4ccc5ccccc5n4)C3)s2)cc1 | 254 nM
35 | O=C(c1nc2ccccc2[nH]1)N1CC[C@@H](Oc2ncccc2C2=CCOCC2)C1 | 767 nM
36 | CC(C)C(=O)N1CCCC(c2cccnc2OC2CN(C(=O)c3nc4ccccc4[nH]3)C2)C1 (stereo not drawn) | 41.4 nM
37 | c1ccc2c(N3CCC(Oc4nccnc4C4CCOCC4)CC3)nccc2c1 | 2810 nM
38 | c1cnc(OC2CCN(c3nc4ccccc4[nH]3)CC2)c(C2CCOCC2)c1 | 199 nM
39 | CC(=O)N1CCC(c2nccnc2OC2CCN(c3cccc(Cl)n3)CC2)CC1 | 235 nM
40 | c1cnc(O[C@@H]2CCN(c3ccc4ccccc4n3)C2)c(C2CCOCC2)c1 | 384 nM
41 | CC(=O)N1CC=C(c2nccnc2OC2CN(C(=O)c3ccc[nH]3)C2)CC1 | 210 nM
42 | Cc1cc(F)ccc1-c1nccnc1OC1CN(c2ccc3ccccc3n2)C1 | 918 nM
43 | OC1CCN(c2ncc(Br)c(OC3CN(c4ccc5ccccc5n4)C3)n2)CC1 | 73.7 nM
